# Test results: patent US7989451B2, “Tricyclic 1,2,4-triazine oxides and compositions for therapeutic use in cancer treatments” (Auckland Uniservices Limited, priority 2005, dated 2011)
# Where two headings read alike, the source gives them in different places.
# Key:
# [1] = tested on: human cervical carcinoma SiHa; assay: Proliferation assay (IC50) under aerobic and hypoxic conditions, SiHa; format: cell-based; conditions: for IC50: Homo sapiens, 4 h drug exposure, sulforhodamine B; for HCR: hypoxic cytotoxicity ratio = IC50 aerobic/IC50 hypoxic
# Method: (§1) Compounds representative of the invention were evaluated under both aerobic and hypoxic conditions in a proliferation assay (IC50), using two cell lines: human colon carcinoma HT29, and human cervical carcinoma SiHa (Table 1).
# (§2) Drug exposures were performed in 96-well plates (Nunc) either using a 37 DC humidified incubator (20% O2, 5% CO2) or in the incubator compartment (37° C.) of an anaerobic chamber (Shell Lab) where palladium catalyst scrubbed gas (90% N2, 5% H2, 5% CO2) ensures severe anoxia (<0.001% O2). For each experiment, compounds were simultaneously tested under both oxic and hypoxic conditions and included TPZ as an internal control. An 8-methyl-5-nitroquinoline derivative, SN 24349, known to require very low oxygen concentrations for bioactivation (Siim et al., Br. J. Cancer 1994, 70, 596-603) was used to confirm that strict hypoxia was present during the experiment. […] Cell cultures were grown in αMEM (Gibco) containing 5% heat inactivated FCS and maintained in exponential growth phase. For each individual experiment an appropriate number of cells were seeded (HT29=1100; SiHa=1500) into wells in αMEM+10% FCS+10 mM added glucose+100 μM 2′-deoxycytidine (2′dCyd), and allowed to attach for 2-3 h. High glucose (final concentration 17 mM) and the presence of 2′-dCyd minimize hypoxia-induced cell cycle arrest. Cultures were then exposed to drugs, using 3-fold serial dilutions in duplicate, for a further 4 h. Subsequently cells were washed free of compound using complete media (without glucose/2′-dCyd) and allowed to grow for 5 (oxic) or 6 (anoxic) days. Plates were stained with sulforhodamine B as described previously (Wilson et al., J. Med. Chem. 1989, 32, 31-38) and IC50 values determined.
# (§3) HCR=Hypoxic cytotoxicity ratio is defined as the ratio of IC50 values under aerobic and hypoxic conditions (IC50 aerobic/IC50 hypoxic).
# [2] = tested on: human colon carcinoma HT29; assay: Proliferation assay (IC50) under aerobic and hypoxic conditions, HT29; format: cell-based; conditions: for IC50: Homo sapiens, 4 h drug exposure, sulforhodamine B; for HCR: hypoxic cytotoxicity ratio = IC50 aerobic/IC50 hypoxic
# Method: as §1, §2, §3
# [3] = hypoxic (anaerobic chamber, <0.001% O2), then 6 days growth, read-out: IC50 (μM) hypoxic
# [4] = oxic (20% O2), then 5 days growth, read-out: IC50 (μM) oxic
# [5] = HT-29, hypoxic (anaerobic chamber, <0.001% O2), then 6 days growth, read-out: IC50 (μM) hypoxic
# [6] = HT-29, oxic (20% O2), then 5 days growth, read-out: IC50 (μM) oxic
melting point,"IC50 [1, 3] [µM]","IC50 [1, 4] [µM]","IC50 [2, 5] [µM]","IC50 [2, 6] [µM]",Structure (SMILES),HCR [1],HCR [2]
152 to 155 °C,2.9 ± 0.4,283,7.7 ± 1.2,717 ± 320,"CCc1n[n+]([O-])c2cc3c(cc2[n+]1[O-])CC(CCO)C3 (stereo not shown) [Compound 162, 2(3-Ethyl-1,4-dioxido-7,8-dihydro-6H-indeno[5,6-e][1,2,4]triazin-7-yl)ethanol]",86,102 ± 57
131 to 133 °C,1.2 ± 0.1,99 ± 32,5.2 ± 0.9,250 ± 119,"CN(C)CCNc1n[n+]([O-])c2cc3c(cc2[n+]1[O-])CCCCC3 [Compound 189, N^1-(1,4-Dioxido-7,8,9,10-tetrahydro-6H-cyclohepta[g][1,2,4]benzotriazin-3-yl)-N^2,N^2-dimethyl-1,2-ethanediamine]",88 ± 32,54 ± 32
149 to 151 °C,0.3 ± 0.02,36 ± 10,2.4 ± 0.1,61 ± 6,"CN(C)CCNc1n[n+]([O-])c2cc3c(cc2[n+]1[O-])CCO3 [Compound 198, N^1-(1,4-Dioxido-6,7-dihydrofuro[3,2-g][1,2,4]benzotriazin-3-yl)-N^2,N^2-dimethyl-1,2-ethanediamine]",87 ± 9,23 ± 0.2
145 to 148 °C,3.4 ± 0.8,90 ± 24,22 ± 4.2,177 ± 80,"[O-][n+]1nc(NCCCN2CCOCC2)[n+]([O-])c2cc3c(cc21)OCC3 [Compound 200, N-[3-(4-Morpholinyl)propyl]-6,7-dihydrofuro[3,2-g][1,2,4]benzotriazin-3-amine 1,4-Dioxide]",28 ± 6,8 ± 3
> 300 °C (dec.),23,> 500,117,495,"Nc1n[n+]([O-])c2cc3c(cc2[n+]1[O-])OCC3 [Compound 205, 7,8-Dihydrofuro[2,3-g][1,2,4]benzotriazin-3-amine 1,4-Dioxide]",–,4
186 to 189 °C,1.9 ± 0.2,176 ± 70,5.2 ± 0.3,258 ± 207,"CN(C)CCNc1n[n+]([O-])c2cc3c(cc2[n+]1[O-])OCC3 [Compound 208, N^1-(1,4-Dioxido-7,8-dihydrofuro[2,3-g][1,2,4]benzotriazin-3-yl)-N^2,N^2-dimethyl-1,2-ethanediamine]",128 ± 3,46 ± 36
187 to 190 °C,3.4 ± 0.7,376 ± 10,9.6 ± 3.6,708 ± 178,"CCN(CC)CCNc1n[n+]([O-])c2cc3c(cc2[n+]1[O-])OCC3 [Compound 210, N^1-(1,4-Dioxido-7,8-dihydrofuro[2,3-g][1,2,4]benzotriazin-3-yl)-N^2,N^2-diethyl-1,2-ethanediamine]",122 ± 25,113 ± 53
186 to 189 °C,29.4 ± 4.2,355 ± 240,48.6 ± 12.2,225 ± 136,"[O-][n+]1nc(NCCCN2CCOCC2)[n+]([O-])c2cc3c(cc21)CCO3 [Compound 212, N-[3-(4-Morpholinyl)propyl]-7,8-dihydrofuro[2,3-g][1,2,4]benzotriazin-3-amine 1,4-Dioxide]",14 ± 10,6 ± 4

# The next lines start with the compound.
Structure (SMILES),melting point,"IC50 [1, 3] [µM]","IC50 [1, 4] [µM]","IC50 [2, 5] [µM]","IC50 [2, 6] [µM]",HCR [1],HCR [2]
"[O-][n+]1nc(NCCCN2CCOCC2)[n+]([O-])c2cc3c(cc21)CCC3 [Compound 61, N-[3-(4-Morpholinyl)propyl]-7,8-dihydro-6H-indeno[5,6-e][1,2,4]triazin-3-amine 1,4-Dioxide]",158 to 160 °C,8.8 ± 1.7,357 ± 35,21 ± 8,385 ± 14,44 ± 12,20 ± 5
"[O-][n+]1nc(NCCCCN2CCOCC2)[n+]([O-])c2cc3c(cc21)CCC3 [Compound 63, N-[4-(4-Morpholinyl)butyl]-7,8-dihydro-6H-indeno[5,6-e][1,2,4]triazin-3-amine 1,4-Dioxide]",140 to 141 °C,5.3 ± 0.4,239 ± 22,14.2,325 ± 70,46 ± 8,28
"[O-][n+]1cn[n+]([O-])c2cc3c(cc21)CCC3 [Compound 65, 7,8-Dihydro-6H-indeno[5,6-e][1,2,4]triazine 1,4-Dioxide]",179 to 181 °C,1 ± 0.5,80 ± 7,2.4 ± 0.4,401 ± 236,155 ± 117,226 ± 153
"CCc1n[n+]([O-])c2cc3c(cc2[n+]1[O-])CCC3 [Compound 68, 3-Ethyl-7,8-dihydro-6H-indeno[5,6-e][1,2,4]triazine 1,4-Dioxide]",140 to 142 °C,37 ± 2,326 ± 7,48 ± 8,289 ± 3,8.8 ± 0.2,6.0 ± 0.05
"[O-][n+]1nc(CCCO)[n+]([O-])c2cc3c(cc21)CCC3 [Compound 71, 3-(1,4-Dioxido-7,8-dihydro-6H-indeno[5,6-e][1,2,4]triazin-3-yl)-1-propanol]",153 to 155 °C,6.9 ± 3.3,680 ± 95,15 ± 3,874 ± 119,114 ± 31,57 ± 1
"CC1Cc2cc3c(cc2C1)[n+]([O-])c(NCCN(C)C)n[n+]3[O-] (stereo not shown) [Compound 97, N^1,N^1-Dimethyl-N^2-(7-methyl-1,4-dioxido-7,8-dihydro-6H-indeno[5,6-e][1,2,4]triazin-3-yl)-1,2-ethanediamine]",149 to 151 °C,1.4 ± 0.3,123 ± 17,3.5 ± 0.4,185 ± 27,97 ± 33,54 ± 14
"CC1Cc2cc3c(cc2C1)[n+]([O-])c(NCCCN1CCOCC1)n[n+]3[O-] (stereo not shown) [Compound 99, 7-Methyl-N-[3-(4-morpholinyl)propyl]-7,8-dihydro-6H-indeno[5,6-e][1,2,4]triazin-3-amine 1,4-Dioxide]",161 to 163 °C,8.4 ± 3.2,415 ± 133,19 ± 6,459 ± 93,50 ± 3,25 ± 2
"CC1Cc2cc3c(cc2C1)[n+]([O-])c(CCCN1CCOCC1)n[n+]3[O-] (stereo not shown) [Compound 104, 7-Methyl-3-[3-(4-morpholinyl)propyl]-7,8-dihydro-6H-indeno[5,6-e][1,2,4]triazine 1,4-Dioxide]",119 to 121 °C,1.7 ± 0.2,226 ± 14,2.9 ± 0.1,210 ± 38,134 ± 4,72 ± 13
"CC1Cc2cc3c(cc2C1)[n+]([O-])c(CCCO)n[n+]3[O-] (stereo not shown) [Compound 105, 3-(7-Methyl-1,4-dioxido-7,8-dihydro-6H-indeno[5,6-e][1,2,4]triazin-3-yl)-1-propanol]",130 to 131 °C,8 ± 0.4,831 ± 30,13 ± 1.3,1040 ± 28,104 ± 4,80 ± 2
"CCc1n[n+]([O-])c2cc3c(cc2[n+]1[O-])CC(CO)C3 (stereo not shown) [Compound 136, (3-Ethyl-1,4-dioxido-7,8-dihydro-6H-indeno[5,6-e][1,2,4]triazin-7-yl)methanol]",157 to 158 °C,6.5 ± 0.2,314 ± 60,17.1,774 ± 8,48 ± 8,45
"[O-][n+]1nc(CCCN2CCOCC2)[n+]([O-])c2cc3c(cc21)CC(CO)C3 (stereo not shown) [Compound 141, {3-[3-(4-Morpholinyl)propyl]-1,4-dioxido-7,8-dihydro-6H-indeno[5,6-e][1,2,4]triazin-7-yl}methanol]",112 to 114 °C,1.8 ± 0.2,377,2.4 ± 0.1,294 ± 34,206,121 ± 14
"CCc1n[n+]([O-])c2cc3c(cc2[n+]1[O-])CC(CN1CCOCC1)C3 (stereo not shown) [Compound 144, 3-Ethyl-7-(4-morpholinylmethyl)-7,8-dihydro-6H-indeno[5,6-e][1,2,4]triazine 1,4-Dioxide]",164 to 165 °C,2.4 ± 0.1,147 ± 37,4.8 ± 1.3,154 ± 51,62 ± 19,31 ± 2
